This is an account of results in ChEMBL document CHEMBL4219173, “2,4-Diamino-8-quinazoline carboxamides as novel, potent inhibitors of the NAD hydrolyzing enzyme CD38: Exploration of the 2-position structure-activity relationships” (Bioorg Med Chem, 2018).

SMILES strings stand for the structures. pIC50: −log10 of the molar value. ≈ marks a conversion by molar mass, not a printed value.

A short description of data set [1]: Lipophilicity, log D of the compound by chromatographic method. The format is physicochemical.
The target of data set [2] is T1, ADP-ribosyl cyclase/cyclic ADP-ribose hydrolase 1 (Homo sapiens, UniProt P28907).
T1 sequence (P28907 whole entry): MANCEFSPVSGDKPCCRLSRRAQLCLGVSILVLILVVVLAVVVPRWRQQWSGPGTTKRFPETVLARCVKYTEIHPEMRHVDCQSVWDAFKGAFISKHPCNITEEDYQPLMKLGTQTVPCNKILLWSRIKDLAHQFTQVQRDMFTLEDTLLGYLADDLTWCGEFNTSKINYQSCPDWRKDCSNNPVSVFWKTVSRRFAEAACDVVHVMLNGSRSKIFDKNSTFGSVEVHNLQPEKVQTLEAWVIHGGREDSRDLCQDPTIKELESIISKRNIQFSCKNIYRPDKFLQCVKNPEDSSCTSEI
The experiment in a line: Inhibition of recombinant human CD38 extracellular domain expressed in Pichia pastoris using NAD as substrate pretreated for 30 mins followed by substrate addition measured after 15 to 45 mins.

In data set [3] the target is Voltage-gated inwardly rectifying potassium channel KCNH2 (Homo sapiens, UniProt Q12809). Briefly: Inhibition of human ERG.
The next data set deals with Cytochrome P450 3A4 (Homo sapiens, UniProt P08684). The experiment in a line: Inhibition of CYP3A4 (unknown origin). Format: ADME.
Data set [4] is described as follows: Aqueous solubility of the compound in FaSSIF. The format is physicochemical.
The nature of data set [5]: Permeability of the compound by PAMPA. The format is ADME. As to conditions: read-out: permeability.
Data set [6] can be described thus: Half life in mouse at 2 mg/kg, iv. The format is ADME, organism-based. As to conditions: in vivo.
Data set [7] is described as follows: Clearance in mouse at 2 mg/kg, iv. The format is ADME, organism-based. Conditions: in vivo.
The nature of data set [8]: Volume of distribution at steady state in mouse at 2 mg/kg, iv. Conditions: in vivo, read-out: Vdss. The format is ADME, organism-based.
Data set [9] in a line: Oral bioavailability in mouse at 30 mg/kg. The format is ADME, organism-based. Conditions: in vivo.
The subject of another data set is Mus musculus. The experiment in a line: Dose normalized AUC in mouse at 30 mg/kg, po. The format is ADME, organism-based. As to conditions: in vivo.

Voltage-gated inwardly rectifying potassium channel KCNH2, sequence (Q12809 whole entry): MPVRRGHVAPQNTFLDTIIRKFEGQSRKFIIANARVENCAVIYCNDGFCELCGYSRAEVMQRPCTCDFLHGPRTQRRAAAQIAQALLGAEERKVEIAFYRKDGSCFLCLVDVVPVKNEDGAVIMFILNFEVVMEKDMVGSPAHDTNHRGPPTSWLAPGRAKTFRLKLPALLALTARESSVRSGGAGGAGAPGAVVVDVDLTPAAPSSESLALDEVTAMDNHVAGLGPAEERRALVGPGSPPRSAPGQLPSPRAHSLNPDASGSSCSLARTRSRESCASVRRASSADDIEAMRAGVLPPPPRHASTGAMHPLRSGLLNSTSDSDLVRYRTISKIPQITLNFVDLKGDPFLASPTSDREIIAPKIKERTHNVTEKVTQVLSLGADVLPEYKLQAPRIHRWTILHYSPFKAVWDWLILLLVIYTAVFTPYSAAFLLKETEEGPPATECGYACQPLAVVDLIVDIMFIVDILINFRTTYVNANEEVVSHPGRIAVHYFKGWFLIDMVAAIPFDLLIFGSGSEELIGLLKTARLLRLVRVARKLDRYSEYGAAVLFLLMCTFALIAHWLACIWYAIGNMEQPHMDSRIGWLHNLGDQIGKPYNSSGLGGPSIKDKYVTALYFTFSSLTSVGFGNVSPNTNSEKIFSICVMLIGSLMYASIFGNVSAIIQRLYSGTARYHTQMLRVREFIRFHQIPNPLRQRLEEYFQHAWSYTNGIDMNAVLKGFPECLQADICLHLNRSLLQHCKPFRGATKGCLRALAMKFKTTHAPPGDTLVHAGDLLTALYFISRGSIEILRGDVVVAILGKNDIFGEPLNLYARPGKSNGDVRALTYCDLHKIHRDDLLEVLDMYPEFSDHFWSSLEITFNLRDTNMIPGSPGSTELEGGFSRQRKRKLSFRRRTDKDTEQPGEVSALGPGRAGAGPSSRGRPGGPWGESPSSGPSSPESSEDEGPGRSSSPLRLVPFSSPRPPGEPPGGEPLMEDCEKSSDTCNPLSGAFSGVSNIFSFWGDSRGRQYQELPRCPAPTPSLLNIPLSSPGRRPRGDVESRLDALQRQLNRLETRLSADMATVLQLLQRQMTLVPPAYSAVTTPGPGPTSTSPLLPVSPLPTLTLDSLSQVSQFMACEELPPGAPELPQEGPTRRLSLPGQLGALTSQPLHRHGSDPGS
Cytochrome P450 3A4, sequence (P08684 whole entry): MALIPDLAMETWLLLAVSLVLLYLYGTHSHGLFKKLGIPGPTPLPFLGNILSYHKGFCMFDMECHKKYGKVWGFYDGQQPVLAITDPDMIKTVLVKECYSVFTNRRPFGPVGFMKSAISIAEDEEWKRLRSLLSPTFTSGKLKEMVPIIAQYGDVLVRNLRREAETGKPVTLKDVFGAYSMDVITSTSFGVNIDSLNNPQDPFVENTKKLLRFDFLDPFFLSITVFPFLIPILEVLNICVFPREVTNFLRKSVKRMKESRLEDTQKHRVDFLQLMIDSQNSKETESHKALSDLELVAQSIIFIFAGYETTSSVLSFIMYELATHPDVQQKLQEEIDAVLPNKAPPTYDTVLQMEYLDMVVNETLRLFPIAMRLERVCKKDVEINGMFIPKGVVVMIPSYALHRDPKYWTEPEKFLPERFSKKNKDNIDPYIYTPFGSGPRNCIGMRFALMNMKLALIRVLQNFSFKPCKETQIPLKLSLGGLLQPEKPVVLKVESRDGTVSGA

As for `Cc1cc(NCc2c(F)cccc2C(F)(F)F)c2cccc(C(N)=O)c2n1`, the chromatographic logD in data set [1] is 5.1.
`CC1(C)c2[nH]nc(N)c2CN1C1=NC(NCc2c(F)cccc2C(F)(F)F)c2cccc(C(N)=O)c2N1` (configuration not stated): the pIC50 in [2] is 7.70.
For the molecule `NC(=O)c1cccc2c1NC(N1Cc3c(N)n[nH]c3C13CCCC3)=NC2NCc1c(F)cccc1C(F)(F)F` (configuration not stated), in data set [2], the negative logarithm of the IC50 (pIC50) was 7.77.
Same read-out and setting: with `Cc1n[nH]c2c1CN(C1=NC(NCc3c(F)cccc3C(F)(F)F)c3cccc(C(N)=O)c3N1)[C@H]2C` (some centres not stated) the figure was 6.77.
In the case of `C[C@H]1c2[nH]nc(N)c2CN1C1=NC(NCc2c(F)cccc2C(F)(F)F)c2cccc(C(N)=O)c2N1` (some centres not stated), in data set [2], the pIC50 is 6.51.
On the same count and under the same terms, the result for `NC(=O)c1cccc2c1NC(N1Cc3[nH]nc(N)c3C1)=NC2NCc1c(F)cccc1C(F)(F)F` (configuration not stated) reads 6.96; that for `NC(=O)c1cccc2c1NC(N1Cc3c(N)n[nH]c3C13CCC3)=NC2NCc1c(F)cccc1C(F)(F)F` (configuration not stated), 8.11.
With `NC(=O)c1cccc2c(NCc3c(F)cccc3C(F)(F)F)nc(NCc3cn[nH]c3)nc12`, in data set [2], the pIC50 is 6.35.
Turning to `NC(=O)c1cccc2c1NC(N1Cc3[nH]nc(C(F)(F)F)c3C1)=NC2NCc1c(F)cccc1C(F)(F)F` (configuration not stated), the pIC50 in data set [2] was 5.39.
Same read-out and setting: with `Cc1n[nH]c2c1CN(C1=NC(NCc3c(F)cccc3C(F)(F)F)c3cccc(C(N)=O)c3N1)[C@@H]2C` (some centres not stated) the figure was 7.68; with `CN(Cc1ccn[nH]1)c1nc(NCc2c(F)cccc2C(F)(F)F)c2cccc(C(N)=O)c2n1`, 5.72.
Still for that read-out and setting: with `C[C@@H]1c2cn[nH]c2CN1C1=NC(NCc2c(F)cccc2C(F)(F)F)c2cccc(C(N)=O)c2N1` (some centres not stated) the figure was 6.48; with `NC(=O)c1cccc2c1NC(N1CCCc3cn[nH]c3C1)=NC2NCc1c(F)cccc1C(F)(F)F` (configuration not stated), 4.72.
`CC[C@H]1c2[nH]ncc2CN1C1=NC(NCc2c(F)cccc2C(F)(F)F)c2cccc(C(N)=O)c2N1` (some centres not stated): the pIC50 in data set [2] was 6.43.
As to `Cc1n[nH]c2c1CN(C1=NC(NCc3c(F)cccc3C(F)(F)F)c3cccc(C(N)=O)c3N1)C2` (configuration not stated), the negative logarithm of the IC50 (pIC50) in [3] is 4.90; in data set [2], 7.38; on Cytochrome P450 3A4, 6.20.
Regarding `C[C@@H]1c2[nH]nc(N)c2CN1C1=NC(NCc2c(F)cccc2C(F)(F)F)c2cccc(C(N)=O)c2N1` (some centres not stated), the negative-log IC50 (pIC50) in data set [2] was 7.35.
For the molecule `NC(=O)c1cccc2c(NCc3c(F)cccc3C(F)(F)F)nc(N3CCc4[nH]ncc4C3)nc12`, the pIC50 in data set [2] was 6.20.
Still for that read-out and setting: with `CC(=O)c1n[nH]c2c1CN(C1=NC(NCc3c(F)cccc3C(F)(F)F)c3cccc(C(N)=O)c3N1)C2` (configuration not stated) the figure was 6.85; with `CC[C@@H]1c2[nH]ncc2CN1C1=NC(NCc2c(F)cccc2C(F)(F)F)c2cccc(C(N)=O)c2N1` (some centres not stated), 7.15; with `NC(=O)c1cccc2c(NCc3c(F)cccc3C(F)(F)F)nc(NCc3nnn[nH]3)nc12`, 5.10.
Take `NC(=O)c1cccc2c(NCc3c(F)cccc3C(F)(F)F)nc(NCc3ccon3)nc12`: in data set [2], the negative logarithm of the IC50 (pIC50) was 5.26.
Same read-out and setting: with `Cn1cc2c(n1)CN(C1Nc3c(C(N)=O)cccc3C(NCc3c(F)cccc3C(F)(F)F)N1)C2` (configuration not stated) the figure was 6.80; with `NC(=O)c1cccc2c1NC(N1Cc3[nH][nH]c(=O)c3C1)=NC2NCc1c(F)cccc1C(F)(F)F` (configuration not stated), 5.80.
As to `C[C@H](O)c1n[nH]c2c1CN(C1=NC(NCc3c(F)cccc3C(F)(F)F)c3cccc(C(N)=O)c3N1)C2` (some centres not stated), the pIC50 in data set [2] was 6.96. The molecule also gave a solubility in data set [4] of 12 µg/mL (≈ 23.2 µM).
As for `NC(=O)c1cccc2c(NCc3c(F)cccc3C(F)(F)F)nc(NCc3cnco3)nc12`, the pIC50 in [2] was 5.47.
Still for that read-out and setting: with `C[C@H]1c2n[nH]cc2CN1C1=NC(NCc2c(F)cccc2C(F)(F)F)c2cccc(C(N)=O)c2N1` (some centres not stated) the figure was 6.39; with `CCc1n[nH]c2c1CN(C1=NC(NCc3c(F)cccc3C(F)(F)F)c3cccc(C(N)=O)c3N1)C2` (configuration not stated), 7.08; with `NC(=O)c1cccc2c(NCc3c(F)cccc3C(F)(F)F)nc(NCc3ccn[nH]3)nc12`, 5.64.
Turning to `NC(=O)c1cccc2c(NCc3c(F)cccc3C(F)(F)F)cc(NCc3cn[nH]c3)nc12`, in data set [2], the negative-log IC50 (pIC50) was 7.14.
As to `NC(=O)c1cccc2c(NCc3c(F)cccc3C(F)(F)F)nc(N3Cc4cn[nH]c4C3)nc12`, the pIC50 in data set [2] is 7.04. Also, the solubility in [4] was determined as 6 µg/mL (≈ 12.7 µM).
Consider `NC(=O)c1cccc2c(NCc3c(F)cccc3C(F)(F)F)nc(NCc3c[nH]cn3)nc12`, for which, in [2], the pIC50 is 5.80.
On to `NC(=O)c1c(C(F)(F)F)ccc2c(NCc3c(F)cccc3C(F)(F)F)nc(NCc3ncco3)nc12`, for which the pIC50 in data set [2] was 5.38.
Consider `Cn1ncc2c1CN(C1=NC(NCc3c(F)cccc3C(F)(F)F)c3cccc(C(N)=O)c3N1)C2` (configuration not stated), for which the pIC50 in data set [2] was 7.09. Moreover, the solubility in data set [4] came to 2 µg/mL (≈ 4.1 µM).
As for `NC(=O)c1cccc2c(NCc3c(F)cccc3C(F)(F)F)nc(N3CCc4cn[nH]c4C3)nc12`, in data set [2], the pIC50 is 5.72.
As to `C[C@@H]1c2n[nH]cc2CN1C1=NC(NCc2c(F)cccc2C(F)(F)F)c2cccc(C(N)=O)c2N1` (some centres not stated), the negative logarithm of the IC50 (pIC50) in [3] is 5.50; in data set [2], 7.29; against Cytochrome P450 3A4, 6.80. Moreover, the Papp in data set [5] came to 14.7 ×10⁻⁶ cm/s. This molecule showed a solubility in data set [4] of 34 µg/mL (≈ 69.7 µM). In data set [6], the half-life was 1.4 h. For the same molecule, the clearance in [7] came out at 37 mL/min/kg. The Vd in [8] worked out at 2.7 L/kg. The molecule also registered a bioavailability in data set [9] of 69%. Moreover, the AUC/dose with Mus musculus is 327 ng·h/mL/(mg/kg).
Consider `NC(=O)c1cccc2c(NCc3c(F)cccc3C(F)(F)F)nc(NCc3nc[nH]n3)nc12`, for which the negative logarithm of the IC50 (pIC50) in data set [2] is 5.37.
Same read-out and setting: the result for `NC(=O)c1cccc2c(NCc3c(F)cccc3C(F)(F)F)nc(NCc3ncc[nH]3)nc12` reads 5.17.
For the molecule `C[C@@H](O)c1n[nH]c2c1CN(C1=NC(NCc3c(F)cccc3C(F)(F)F)c3cccc(C(N)=O)c3N1)C2` (some centres not stated), in data set [2], the pIC50 was 6.64. The molecule also returned a solubility in data set [4] of 11 µg/mL (≈ 21.3 µM).
Take `Cc1n[nH]cc1CNc1nc(NCc2c(F)cccc2C(F)(F)F)c2cccc(C(N)=O)c2n1`: the pIC50 in [2] was 6.21.
On the same count and under the same terms, the result for `C[C@H]1c2cn[nH]c2CN1C1=NC(NCc2c(F)cccc2C(F)(F)F)c2cccc(C(N)=O)c2N1` (some centres not stated) reads 5.60.
For `NC(=O)c1cccc2c1NC(N1Cc3c(N)n[nH]c3C13CC3)=NC2NCc1c(F)cccc1C(F)(F)F` (configuration not stated), in data set [2], the pIC50 was 8.40. The same molecule had a chromatographic logD in [1] of 3.9.

A word on the chromatographic logD: it is lipophilicity estimated from chromatographic retention. A higher chromatographic logD goes with higher lipophilicity. A word on the pIC50: it is −log10 of the IC50, conventionally taken in molar units. The solubility is how much of the substance goes into solution per volume. Read a high solubility as a readily soluble substance. One may read the half-life as the time needed for the level to fall by half in the phase considered. Low readings indicate rapid decline, high ones slow decline. By clearance is commonly meant the rate of elimination divided by the concentration. Higher therefore signals a high capacity for elimination. The bioavailability is dose-corrected exposure relative to a reference, in per cent. High values mean much systemic uptake, low ones little systemic uptake.
